These results are taken from US11917995B2, “Fungicidal compositions of mefentrifluconazole” (BASF AGRO B.V., priority 2018, dated 2024).

Assay type in all cases: cell-based
In one experiment the test system is Septoria tritici. Briefly: Microtest: activity against leaf blotch on wheat caused by Septoria tritici (Septtr). To be noted: single active compound, 0.001 ppm; 7 days after inoculation. As for the experimental part: (§1) The visually determined percentages of infected leaf areas are converted into efficacies in % of the untreated control.
(§2) The efficacy (E) is calculated as follows using Abbot's formula: E=(1−α/β·100 • α corresponds to the fungicidal infection of the treated plants in % and • β corresponds to the fungicidal infection of the untreated (control) plants in %
(§3) An efficacy of 0 means that the infection level of the treated plants corresponds to that of the untreated control plants; an efficacy of 100 means that the treated plants were not infected. The expected efficacies of active compound combinations may be determined using Colby's formula (Colby, S. R. “Calculating synergistic and antagonistic responses of herbicide combinations”, Weeds, 15, pp. 20-22, 1967) and compared with the observed efficacies. […]
The stock solutions were mixed according to the ratio, pipetted onto a micro titer plate (MTP) and diluted with water to the stated concentrations. […] Using an absorption photometer, the MTPs were measured at 405 nm 7 days after the inoculation.
(§4) The measured parameters were compared to the growth of the active compound-free control variant (100%) and the fungus-free and active compound-free blank value to determine the relative growth in % of the pathogens in the respective active compounds.

The next experiment relates to Colletotrichum truncatum. Nature of the experiment: Microtiterplate test: activity against Colletotrichum truncatum (Colldu). To be noted: single active compound, 7 days after inoculation. As for the experimental part: as §1, §2
(§5) An efficacy of 0 means that the infection level of the treated plants corresponds to that of the untreated control plants; an efficacy of 100 means that the treated plants were not infected. The expected efficacies of active compound combinations may be determined using Colby's formula (Colby, S. R. “Calculating synergistic and antagonistic responses of herbicide combinations”, Weeds, 15, pp. 20-22, 1967) and compared with the observed efficacies.
(§6) Colby's formula: E=x+y−x·y/100 • E expected efficacy, expressed in % of the untreated control, when using the mixture of the active compounds A and B at the concentrations a and b • x efficacy, expressed in % of the untreated control, when using the active compound A at the concentration a • y efficacy, expressed in % of the untreated control, when using the active compound B at the concentration b.
(§7) The active compounds were formulated separately as a stock solution having a concentration of 10000 ppm in dimethyl sulfoxide.
(§8) The stock solutions were mixed according to the ratio, pipetted onto a micro titer plate(MTP) and diluted with water to the stated concentrations. Spores of the respective pathogen in an aqueous biomalt or yeast-bactopeptone-glycerine solution were then added. The plates were placed in a water vapor-saturated chamber at a temperature of 18° C. Using an absorption photometer, the MTPs were measured at 405 nm 7 days after the inoculation.
as §4

Experiment [1] relates to Colletotrichum orbicularum. Briefly: Microtiterplate test: activity against Colletotrichum orbicularum (Collla). The following applies: single active compound, 7 days after inoculation. As for the experimental part: as §1, §2, §5, §6, §7, §8, §4
Another experiment relates to Sclerotinia sclerotiorum. Briefly: Microtiterplate test: activity against Sclerotinia sclerotiorum (Sclesc). The following applies: single active compound, 0.25 ppm; 7 days after inoculation. As to the method: as §1, §2, §3
The stock solutions were mixed according to the ratio, pipetted onto a micro titer plate(MTP) and diluted with water to the stated concentrations. […] Using an absorption photometer, the MTPs were measured at 405 nm 7 days after the inoculation.
as §4

On to `CCN(C)C=Nc1cc(C)c(Oc2ccccc2)cc1C` [II-3, N′-(2,5-dimethyl-4-phenoxy-phenyl)-N-ethyl-N-methyl-formamidine], for which the Observed efficacy in the experiment with Septoria tritici is listed as 5%; with Colletotrichum truncatum (4 ppm) it was 16%; in experiment [1] (0.25 ppm), 19%; in the experiment on Sclerotinia sclerotiorum it was 11%.

Turning to `CC(O)(Cn1cncn1)c1ccc(Oc2ccc(Cl)cc2)cc1C(F)(F)F` (stereo not drawn) [Mefentrifluconazole, mefentrifluconazole], the Observed efficacy with Septoria tritici is recorded as 0%; with Colletotrichum truncatum (0.063 ppm), 0%; in the experiment on Colletotrichum truncatum (0.25 ppm), 8%; in the experiment with Colletotrichum truncatum (1 ppm), 18%; in the experiment on Colletotrichum truncatum (4 ppm), 28%; in experiment [1] (0.25 ppm), 7%. The values for the Observed efficacy (in experiment [1] (1 ppm); in the experiment on Sclerotinia sclerotiorum) were 25% and 1%, respectively.
